From PubChem BioAssay (NCI)
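These data come from cells grown in 96-well plates and exposed to compound for 48 hours at five concentrations. GI50 marks 50% less growth. The concentration for full growth arrest is given as TGI.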

Tests used:
Assay in all cases: growth of human tumour cells (NCI), 48 h
[1] = system: 786-0 renal
[2] = system: A498 renal
[3] = system: A549 NSCLC
[4] = system: ACHN renal
[5] = system: BT-549 breast
[6] = system: CAKI-1 renal
[7] = system: CCRF-CEM leukemia
[8] = system: COLO 205 colon
[9] = system: DU-145 prostate
[10] = system: EKVX NSCLC
[11] = system: HCC-2998 colon
[12] = system: HCT-116 colon
[13] = system: HCT-15 colon
[14] = system: HL-60(TB) leukemia
[15] = system: HOP-62 NSCLC
[16] = system: HOP-92 NSCLC
[17] = system: HS 578T breast
[18] = system: HT29 colon
[19] = system: IGROV1 ovarian
[20] = system: K-562 leukemia
[21] = system: KM12 colon
[22] = system: LOX IMVI melanoma
[23] = system: M14 melanoma
[24] = system: MALME-3M melanoma
[25] = system: MCF7 breast
[26] = system: MDA-MB-231 breast
[27] = system: MDA-MB-435
[28] = system: MOLT-4 leukemia
[29] = system: NCI-H226 lung
[30] = system: NCI-H23 lung
[31] = system: NCI-H460 lung
[32] = system: NCI-H522 lung
[33] = system: NCI/ADR-RES ovarian
[34] = system: OVCAR-3 ovarian
[35] = system: OVCAR-4 ovarian
[36] = system: OVCAR-5 ovarian
[37] = system: OVCAR-8 ovarian
[38] = system: PC-3 prostate
[39] = system: RPMI-8226 leukemia
[40] = system: RXF 393 renal
[41] = system: SF-268 CNS
[42] = system: SF-295 CNS
[43] = system: SF-539 CNS
[44] = system: SK-MEL-2 melanoma
[45] = system: SK-MEL-28 melanoma
[46] = system: SK-MEL-5 melanoma
[47] = system: SK-OV-3 ovarian
[48] = system: SN12C renal
[49] = system: SNB-19 CNS
[50] = system: SNB-75 CNS
[51] = system: SR leukemia
[52] = system: SW-620 colon
[53] = system: T-47D breast
[54] = system: TK-10 renal
[55] = system: U251 CNS
[56] = system: UACC-257 melanoma
[57] = system: UACC-62 melanoma
[58] = system: UO-31 renal

Molecule O=C(CCCCCCSc1nc(-c2ccccc2)cc(-c2ccc(Cl)cc2)n1)NO has a GI50 [1] of 2.22 µM, a TGI [1] of 6.92 µM and a GI50 [2] of 1.4 µM. It also gave a TGI [2] of 4.09 µM, a GI50 [3] of 2.16 µM and a TGI [3] of 6.23 µM. The GI50 [4] was 1.58 µM, the TGI [4] was 3.64 µM and the GI50 [5] was 3.67 µM. For the same molecule, the TGI [5] was 17.5 µM, the GI50 [6] was 1.51 µM and the TGI [6] was 6.89 µM. For the same molecule, the GI50 [7] was 0.629 µM, the TGI [7] was 6.49 µM and the GI50 [8] was 2.38 µM. For the same molecule, the TGI [8] was 5.76 µM, the GI50 [9] was 2.25 µM and the TGI [9] was 10.6 µM. For the same molecule, the GI50 [10] was 3.7 µM, the TGI [10] was 14.3 µM and the GI50 [11] was 2.44 µM. For the same molecule, the TGI [11] was 7.19 µM, the GI50 [12] was 1.14 µM and the TGI [12] was 12.4 µM. It also gave a GI50 [13] of 2.27 µM, a TGI [13] of 14 µM and a GI50 [14] of 2.16 µM. It also gave a TGI [14] of 4.84 µM, a GI50 [15] of 1.96 µM and a TGI [15] of 5.24 µM. The GI50 [16] was 1.75 µM, the TGI [16] was 5.44 µM and the GI50 [17] was 2.76 µM. It also gave a TGI [17] of 20.1 µM, a GI50 [18] of 2.05 µM and a TGI [18] of 11.4 µM. For the same molecule, the GI50 [19] was 1.24 µM, the TGI [19] was 6.5 µM and the GI50 [20] was 1.66 µM. The TGI [20] was 10.8 µM, the GI50 [21] was 2.97 µM and the TGI [21] was 13.5 µM. The GI50 [22] was 2.06 µM, the TGI [22] was 4.66 µM and the GI50 [23] was 1.95 µM. The TGI [23] was 6.53 µM, the GI50 [24] was 1.25 µM and the TGI [24] was 9.05 µM. The GI50 [25] was 1.95 µM, the TGI [25] was 13.3 µM and the GI50 [26] was 2.65 µM. It also gave a TGI [26] of 8.96 µM, a GI50 [27] of 2.24 µM and a TGI [27] of 10.9 µM. For the same molecule, the GI50 [28] was 0.557 µM, the TGI [28] was 4.26 µM and the GI50 [29] was 2.59 µM. It also gave a TGI [29] of 11.8 µM, a GI50 [30] of 1.88 µM and a TGI [30] of 5.13 µM. The GI50 [31] was 1.22 µM, the TGI [31] was 10.2 µM and the GI50 [32] was 1.13 µM. It also gave a TGI [32] of 8.05 µM, a GI50 [33] of 0.596 µM and a TGI [33] of 8.84 µM. It also gave a GI50 [34] of 1.96 µM, a TGI [34] of 6.86 µM and a GI50 [35] of 2.52 µM. For the same molecule, the TGI [35] was 13.5 µM, the GI50 [36] was 1.56 µM and the TGI [36] was 5.42 µM. The GI50 [37] was 1.93 µM, the TGI [37] was 10.2 µM and the GI50 [38] was 1.98 µM. For the same molecule, the TGI [38] was 10.5 µM, the GI50 [39] was 0.64 µM and the TGI [39] was 6.19 µM. The GI50 [40] was 1.57 µM, the TGI [40] was 3.89 µM and the GI50 [41] was 2.44 µM. For the same molecule, the TGI [41] was 6.75 µM, the GI50 [42] was 2.45 µM and the TGI [42] was 6.7 µM. It also gave a GI50 [43] of 1.84 µM, a TGI [43] of 5.31 µM and a GI50 [44] of 3.65 µM. It also gave a TGI [44] of 16.2 µM, a GI50 [45] of 2.94 µM and a TGI [45] of 12.1 µM. The GI50 [46] was 1.69 µM, the TGI [46] was 3.93 µM and the GI50 [47] was 2.36 µM. It also gave a TGI [47] of 6.04 µM, a GI50 [48] of 2.14 µM and a TGI [48] of 6.35 µM. The GI50 [49] was 2.63 µM, the TGI [49] was 11.2 µM and the GI50 [50] was 1.95 µM. It also gave a TGI [50] of 13.7 µM, a GI50 [51] of 0.416 µM and a TGI [51] of 4.67 µM. It also gave a GI50 [52] of 1.48 µM, a TGI [52] of 10.4 µM and a GI50 [53] of 1.62 µM. The TGI [53] was 4.98 µM, the GI50 [54] was 2.78 µM and the TGI [54] was 13.5 µM. It also gave a GI50 [55] of 1.59 µM, a TGI [55] of 4.08 µM and a GI50 [56] of 2.67 µM. It also gave a TGI [56] of 11.4 µM, a GI50 [57] of 1.37 µM and a TGI [57] of 3.5 µM. The GI50 [58] was 0.905 µM and the TGI [58] was 2.65 µM.
COc1ccc(-c2nn3ncccc3c2-c2ccnc(Nc3ccc(Cl)c(C(F)(F)F)c3)n2)cc1 showed a GI50 [1] of 11 µM, a TGI [1] of over 25 µM and a GI50 [2] of 6.52 µM. The TGI [2] was over 25 µM, the GI50 [3] was 10.8 µM and the TGI [3] was over 25 µM. The GI50 [4] was 10.1 µM, the TGI [4] was over 25 µM and the GI50 [5] was 10.2 µM. For the same molecule, the TGI [5] was over 25 µM, the GI50 [6] was 12.4 µM and the TGI [6] was over 25 µM. For the same molecule, the GI50 [7] was 8.37 µM, the TGI [7] was over 25 µM and the GI50 [8] was 12.7 µM. The TGI [8] was over 25 µM, the GI50 [9] was 14 µM and the TGI [9] was over 25 µM. It also gave a GI50 [10] of 7.84 µM, a TGI [10] of over 25 µM and a GI50 [11] of 6.42 µM. It also gave a TGI [11] of 20.8 µM, a GI50 [12] of 8.01 µM and a TGI [12] of over 25 µM. For the same molecule, the GI50 [13] was 9.97 µM, the TGI [13] was over 25 µM and the GI50 [14] was 11.9 µM. The TGI [14] was over 25 µM, the GI50 [15] was 15.5 µM and the TGI [15] was over 25 µM. For the same molecule, the GI50 [16] was 4.54 µM, the TGI [16] was 19.8 µM and the GI50 [17] was 9.15 µM. The TGI [17] was over 25 µM, the GI50 [18] was 9.88 µM and the TGI [18] was over 25 µM. For the same molecule, the GI50 [19] was 9.48 µM, the TGI [19] was over 25 µM and the GI50 [20] was 10.8 µM. The TGI [20] was over 25 µM, the GI50 [21] was 9.89 µM and the TGI [21] was over 25 µM. For the same molecule, the GI50 [22] was 8.95 µM, the TGI [22] was over 25 µM and the GI50 [23] was 11.5 µM. For the same molecule, the TGI [23] was over 25 µM, the GI50 [24] was 10.8 µM and the TGI [24] was over 25 µM. It also gave a GI50 [25] of 6.53 µM, a TGI [25] of over 25 µM and a GI50 [26] of 8.56 µM. It also gave a TGI [26] of over 25 µM, a GI50 [27] of 9.69 µM and a TGI [27] of over 25 µM. For the same molecule, the GI50 [28] was 10.9 µM, the TGI [28] was over 25 µM and the GI50 [29] was 10.5 µM. The TGI [29] was over 25 µM, the GI50 [30] was 10.6 µM and the TGI [30] was over 25 µM. For the same molecule, the GI50 [31] was 8.45 µM, the TGI [31] was over 25 µM and the GI50 [32] was 12.4 µM. For the same molecule, the TGI [32] was over 25 µM, the GI50 [33] was 7.62 µM and the TGI [33] was over 25 µM. The GI50 [34] was 10.5 µM, the TGI [34] was over 25 µM and the GI50 [35] was 8.66 µM. For the same molecule, the TGI [35] was over 25 µM, the GI50 [36] was 9.39 µM and the TGI [36] was over 25 µM. It also gave a GI50 [37] of 8.58 µM, a TGI [37] of over 25 µM and a GI50 [38] of 6.2 µM. For the same molecule, the TGI [38] was over 25 µM, the GI50 [39] was 8.28 µM and the TGI [39] was over 25 µM. The GI50 [40] was 5.66 µM, the TGI [40] was over 24 µM and the GI50 [41] was 11.6 µM. The TGI [41] was over 25 µM, the GI50 [42] was 9.96 µM and the TGI [42] was over 25 µM. The GI50 [43] was over 18.9 µM, the TGI [43] was over 25 µM and the GI50 [44] was 11.6 µM. For the same molecule, the TGI [44] was over 25 µM, the GI50 [45] was 16.9 µM and the TGI [45] was over 25 µM. The GI50 [46] was 7.16 µM, the TGI [46] was over 22 µM and the GI50 [47] was 13.1 µM. The TGI [47] was over 25 µM, the GI50 [48] was 9.54 µM and the TGI [48] was over 25 µM. For the same molecule, the GI50 [49] was 16 µM, the TGI [49] was over 25 µM and the GI50 [50] was over 13.8 µM. It also gave a TGI [50] of over 25 µM, a GI50 [51] of 17.6 µM and a TGI [51] of over 25 µM. The GI50 [52] was 14.4 µM, the TGI [52] was over 25 µM and the GI50 [53] was 7.21 µM. It also gave a TGI [53] of over 25 µM, a GI50 [54] of 13.2 µM and a TGI [54] of over 25 µM. The GI50 [55] was 12.4 µM, the TGI [55] was over 25 µM and the GI50 [56] was 11.5 µM. The TGI [56] was over 25 µM, the GI50 [57] was 9.36 µM and the TGI [57] was over 25 µM. For the same molecule, the GI50 [58] was 6.32 µM and the TGI [58] was over 25 µM.
